The source of these data is patent publication US20260144798A1, “Disruption of Vascular Smooth Muscle Relaxation by Carfilzomib May be the Primary Reason for CFZ-Induced Vascular Dysfunction” (AMGEN INC., priority 2019, published 2026).

One data set deals with eNOS. The data set is described as follows: Western blot of phosphorylated eNOS and eNOS in mouse endothelial cells. The class given is cell-based. The note with it: different concentrations of CFZ (FIG. 3A). On the procedure:
Protein levels of eNOS were unable to be assessed in rat endothelial cells; therefore, endothelial cells from mice were used. Mouse coronary endothelial cells (Cell Biologics) at passage 7 were seeded at 50,000 cells per well with 200 μL of endothelial cell media (Cell Biologics) in 96-well plates for 24 hours at 37° C. in 5% CO2. Some cells were pretreated with 100 μM L-NAME for 1 hour before adding 10 μM ACh. Cells were further treated with 0.3, 0.9, or 2.7 μM of CFZ or its vehicle for an additional 48 hours. The supernatant was collected and the amount of NO was assessed following the manufacturer's protocol for the colorimetric Nitric Oxide Assay Kit (Abcam, Cambridge, MA).
Each cell pellet was lysed in 50 to 70 μL RIPA buffer (Cell Signaling Technology, Danvers, MA) with the Halt™ protease and phosphatase inhibitor cocktail (Thermo Fisher Scientific). Lysates were quantitated and loaded onto the Li-COR Western blot system. Antibodies specific to phosphorylated eNOS and eNOS from Thermo Fisher Scientific, anti-Guanylyl Cyclase β1 (ER-19) (Sigma-Aldrich), and β-Actin (Sigma-Aldrich) were diluted 1:1000 for Western blot. Antibodies specific to p-VASP, VASP, and GADPH-HRP were purchased from Cell Signaling Technology.
In general terms: Immunoblotting shows a protein as a band on a membrane.

Data set [1] has as its system rat aortic rings. The data set is described as follows: Acetylcholine-induced relaxation of phenylephrine-precontracted rat aortic rings.
Description: An isometric myograph (DMT 620M) was used for ex vivo measurement of vascular function. Eight-to 10-week old Sprague Dawley rats (purchased from Charles River Laboratories, Wilmington, MA) were first anesthetized with 3% isoflurane and then euthanized using inhaled desflurane. The aortas were isolated in an ice-cold, oxygenated (95% O2, 5% CO2) Krebs-Henseleit buffer (118.3 mM NaCl, 4.7 mM KCl, 1.2 mM MgSO4, 1.2 mM KH2PO4, 2.5 mM CaCl2, 25 mM NaHCO3, and 11.0 mM glucose; purchased from Sigma-Aldrich, St. Louis, MO). The thoracic aorta was carefully cleaned to remove perivascular fat and cut into 2-mm rings that were mounted between two stainless steel wires in the myograph chamber containing 8 mL of Krebs-Henseleit buffer in 95% O2 and 5% CO2 at 37° C. First, the rings were equilibrated in the chamber for 20 minutes, followed by a gradual increase of mechanical stretch until a final stretch of 10 mN (Newton) was reached. After an additional incubation with fresh buffer for 30 minutes, the rings were constricted with 8 mL of 80 mM KPSS (43 mM NaCl, 80 mM KCl, 2.5 mM CaCl2, 1.2 mM MgSO4, 1.2 mM KH2PO4, 25.0 mM NaHCO3, and 11.0 mM glucose) for 15 to 20 minutes, followed by 3 washes with the Krebs-Henseleit buffer until the force returned to the baseline stretch. The tension of the aortic rings was continuously measured with the Lab Chart 7 data acquisition system (ADInstruments, Colorado Springs, CO). In Some of the experiments the aortic rings were pre-treated with 100 μM N(gamma)-nitro-L-arginine methyl ester (L-NAME; Sigma-Aldrich) and 10 μM indomethacin for 10 minutes prior to the pre-incubation with CFZ (Amgen Inc.) for 2 hours. After an additional incubation with fresh buffer for 30 minutes, the rings were constricted with 8 mL of 80 mM KPSS (43 mM NaCl, 80 mM KCl, 2.5 mM CaCl2, 1.2 mM MgSO4, 1.2 mM KH2PO4, 25.0 mM NaHCO3, and 11.0 mM glucose) for 15 to 20 minutes, followed by 3 washes with the Krebs-Henseleit buffer until the force returned to the baseline stretch. The tension of the aortic rings was continuously measured with the Lab Chart 7 data acquisition system (ADInstruments, Colorado Springs, CO).
For assessment of the effect of CFZ on vascular relaxation, the pre-treated aortic rings were incubated with 1 μM PE for 20 minutes to induce contraction. For experiments involving sildenafil and tadalafil, a 10-minute pre-treatment with 30 nM of these smooth muscle relaxants was done prior to the incubation with CFZ. After reaching a stable contraction, ACh, sodium nitroprusside (SNP), nifedipine, riociguat, or cinaciguat was added to the chamber at an increasing concentration from 100 pM to 10 μM; each stepwise concentration increase was added after the response to the current concentration reached a plateau. The relaxation was continuously measured and plotted as percent relaxation normalized to the response with 1 μM PE.
For a further data set, the system named is mice. The following applies: depending on dosage and administration schedule; cited from earlier work.
Data set [2] concerns rat aortic rings. The data set is described as follows: Angiotensin induced contraction (AUC) of rat aortic rings. The following applies: LNAME+indomethacin, 2.7 μM CFZ 1.5 hour, 30 nM Angiotensin 30 min (FIG. 11).
Description: Following the two incubation the rings were treated with either vehicle or 2.7 μM CFZ for further 1.5 hours before addition of 30 nM Angiotensin for 30 min. Angiotensin induced transient contraction which returned to the baseline in 30 mins. Area Under the Curve (AUC) of angiotensin induced contraction was measured.
Aortic rings were incubated for 10 min with 100 μM LNAME+10 μM indomethacin (endothelium derived relaxing agents blockers) for 10 mins followed by addition of 10 μM SB 203580 (p38 inhibitor) or PF3644022 (MAPKAPK-2 inhibitor) in some rings for 10 more mins as indicated. This was followed by addition of 2.7 μM CFZ in some rings as indicated for 1.5 hour. 30 nM Angiotensin was added for 30 min. Angiotensin induced transient contraction which returned to the baseline in 30 mins.
In the next data set the test system is P38 pathway. The data set is described as follows: Western blot for activation of p38 pathway in rat aortic rings. The following applies: 2.7 μM CFZ 1.5 hours, with or without indomethacin plus LNAME (FIG. 7). On the procedure:
Aortas were isolated from 8-10 week old CD® (Sprague Dawley) rats (from Charles River Laboratories) in an ice-cold, oxygenated (95% O2, 5% CO2) Krebs-Henseleit buffer. The aortas were then carefully cleaned to remove perivascular fat and cut into 2-mm rings that were mounted between two stainless steel wires in the myograph chamber containing 8 mL of Krebs-Henseleit buffer in 95% O2 and 5% CO2 at 37° C. Rings were stretch until a final stretch of 10 mN (Newton) was reached and incubated for 30 mins for equilibration. The rings were constricted with 8 mL of 80 mM KPSS for 15 minutes, followed by 3 washes with the Krebs-Henseleit buffer until the force returned to the baseline stretch. The aorta were then treated for one of the following experiments: • For protein expression studies the aortic rings were pre-treated with 100 μM N(gamma)-nitro-L-arginine methyl ester (L-NAME; Sigma-Aldrich) and 10 μM indomethacin for 10 minutes prior to the pre-incubation with CFZ (Amgen Inc.) for 1.5 hours. The rings were then isolated for protein expression analysis. […]

For `CC(C)C[C@H](NC(=O)[C@H](CCc1ccccc1)NC(=O)CN1CCOCC1)C(=O)N[C@@H](Cc1ccccc1)C(=O)N[C@@H](CC(C)C)C(=O)[C@@]1(C)CO1` [CFZ, carfilzomib], in the data set on eNOS, the “level of phosphorylated eNOS” value is “increasing level of phosphorylated eNOS corresponded to the increasing CFZ concentration” and the “protein expression level of total eNOS” value is “remained the same”. The “EC50 for ACh-induced relaxation, CFZ alone” value with rat aortic rings [1] (FIG. 5B experiment, vehicle alone 1.9×10^−8) is recorded as 7.3×10^−8. Further, in the data set with rat aortic rings [1] (in the presence of CFZ 2.7 μM, vehicle alone 3.2×10^−8 (FIG. 2A)), the “EC50 for ACh-induced relaxation” value is 1.4×10 ^−7. In addition, the “effect on ACh-induced relaxation (percent relaxation)” value in the data set with rat aortic rings [1] (increasing CFZ concentrations, high concentrations of ACh (FIG. 2A)) is given as “significantly compromised”. Besides, in the data set on mice, the “effect on AMPKα/mTORC1 and PI3K/Akt/eNOS pathways” value is listed as “inhibit AMPKα/mTORC1 pathways”. The “angiotensin induced contraction, area under the curve” value in the data set with rat aortic rings [2] is recorded as “increased angiotensin induced contraction”. The “activation of p38 pathway” value in the data set with P38 pathway is “caused activation of P38 pathway with or without endothelium dependent relaxing factors”.
